Experimental data as given in patent US20060099712A1, “Correlation of anti-cancer activity of dyes with redox potentials” (Eastman Kodak Company, priority 2004, published 2006).

Test system: CX-1 Human Colon Carcinoma
Test: Clonogenic dye screening assay, CX-1 cells (IC50)
Format: cell-based
Parameters: CX: unit not given here
Conditions: for CX (IC50 in the CX-1 cell line): 3 hrs treatment, colonies after 7-10 days, unit from method b117-118; for CV/CX (selectivity, kill ratio): ratio of IC50 in normal CV-1 line to IC50 in carcinoma CX-1 line; for CX: CX-1 cells
Procedure, shortened: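 Cells seeded 16-30 h ahead (2000 CX-1 or 1000 CV-1 per well), exposed to serially diluted dyes for 3 h at 37 °C, rinsed three times, then grown into colonies. Eight-point curves spanned 0.32-0.0015 μg/mL (CX-1) and 3.2-0.025 μg/mL (CV-1). IC50 is the concentration killing 50% of cells.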

Compound	CX (IC50 in the CX-1 cell line) [µg/mL]	CV/CX (selectivity, kill ratio)	also measured
CCSC(CCN1/C(=C/C=C/c2sc3ccccc3[n+]2CCC(SCC)SCC)Sc2ccccc21)SCC [drawing 36|CCC(SEt)2|CCC(SEt)2]	>0.32	<4.1	–
CN1/C(=C/C=C(\C=O)c2sc3ccccc3[n+]2C)Sc2ccccc21 [drawing 38|M|CHO|H|H]	>0.32	10.0	–
CCN1/C(=C/C=C/c2sc3cc(C)c(C)cc3[n+]2CC)Oc2ccccc21 [drawing 44|E|5,6-Me|H]	–	>20.0	–
OCCN1/C(=C/C=C/c2sc3ccccc3[n+]2CCO)Sc2ccccc21 [R1=CCOH, R2=CCOH]	–	–	CX (Table XX, thiacarbocyanine nitrogen substituents): >0.32; CV/CX (Table XX, ratio given a value of 1 where dye inactive): 1.0
CC[n+]1c(/C=C/C=C2\Oc3ccccc3N2CC(=O)c2ccccc2)sc2ccccc21 [drawing 37|Et|C(C═O)Ph]	0.8	3.7	–
C(/C=C/c1sc2cccc3c2[n+]1CCC3)=C1/Sc2cccc3c2N1CCC3 [Dye D-102]	<0.005	160	–
CCN1/C(=C\C=C\c2sc3ccccc3[n+]2CC)Oc2ccc(Cl)cc21 [drawing 44|Et|H|5-Cl]	–	27.3	–
CC[n+]1c(/C=C/C=C2C=CN(C)c3ccccc32)sc2ccccc21 [Dye 4-quinoline]	–	–	CX (Table XVI, unsymmetrical dyes): 0.01; CV/CX (Table XVI, selectivity ratio of IC50 values): 40.0
CCN1C(=CC=Cc2sc3ccc(Cl)cc3[n+]2CC)Sc2ccccc21 [drawing 41|Et|5-Cl|H]	0.02	40.0	–
CCN1/C(=C/C=C/c2sc3ccc(OC)cc3[n+]2CC)Sc2ccc(OC)cc21 [drawing 41|Et|5-MeO|5-MeO]	–	40.0	–
CCN1/C(=C/C=C/c2sc3ccccc3[n+]2CC)Oc2ccc(NS(=O)(=O)c3ccccc3)cc21 [drawing 44|E|H|5-NHSO2Ph]	–	16.7	–
CCN1/C(=C/C=C/c2sc3ccccc3[n+]2CCC(=O)N(c2ccccc2)C(C)C)Oc2ccccc21 [drawing 37|CCC(═0)N(iPr)Ph|Et]	0.03	26.7	–
CCN1/C(=C/C(=C/c2sc3ccccc3[n+]2CC)Sc2ccc(C)cc2)Sc2ccccc21 [drawing 38|E|H|SPhMe|H]	0.07	3.57	–
CN1C2=C(CCc3ccccc32)S/C1=C\C=C\c1sc2c([n+]1C)-c1ccccc1CC2 [drawing 43|M|4,5-H|4,5-H]	0.20	4.0	–
CN1/C(=C/C=C/c2sc3c(F)c(F)c(F)c(F)c3[n+]2C)Sc2c(F)c(F)c(F)c(F)c21 [drawing 41|Me|4,5,6,7-F|4,5,6,7-F]	>0.32	10.0	–
CCN1/C(=C/C=C(\O)c2sc3ccccc3[n+]2CC)Oc2ccccc21 [drawing 39|E|OH|H]	–	10.0	–
CCC(/C=C1\Oc2ccc3ccccc3c2N1CC)=C\c1sc2ccc3ccccc3c2[n+]1CC [drawing 40|E|Et]	0.06	5.0	–
CN1/C(=C/C=C/c2[te]c3ccc(O)cc3[n+]2C)[Te]c2ccc(O)cc21 [R=M, X=Te, Z1=5-OH, R2=H, Z2=5-OH]	–	–	CV/CX (Table XVII, selectivity ratio of IC50 values): 7.6
CCN1/C(=C/C=C/c2sc3ccccc3[n+]2CC)Oc2cccc(O)c21 [drawing 44|E|H|4-OH]	–	0.43	–
CN1/C(=C/C(=C/c2sc3ccc4ccccc4c3[n+]2C)c2ccccc2)Oc2ccc3ccccc3c21 [drawing 40|M|Ph]	0.03	10.0	–
